Laboratory results: patent US6326369A, “Bicyclic quinone compounds, their production and use” (Takeda Chemicals Industries, Ltd., priority 1997, dated 2001)
Read-outs that look alike come from different tables or passages of the source.

System: Brain Homogenate
Experiment: Peroxylipid formation inhibiting effect in brain homogenate (thiobarbituric acid (TBA) method)
Format: biochemical, Wistar rats (male, 12-week old)
Settings: 37° C., 30 minutes, pH 7.4
Procedure: JC1:Wistar rats (male, 12-week old) were used as test animals. The rats were sacrificed by decapitation, and the brain was quickly removed and homogenized with 10 ml of 10 mM Tris-HCl buffer (pH 7.4) containing 150 mM KCl. The resulting homogenate was centrifuged at 2,200 rpm, at 4° C., for 10 minutes, and the supernatant was used in the test. 250 μl of the supernatant was put into a 96-well plate, to which was added a test compound and incubated at 37° C. for 30 minutes.
The concentration of glutamic acid and succinic acid, if added prior to the incubation, was 5.0 mM and 2.5 mM, respectively.
To determine the amount of the peroxylipid formed, used was a thiobarblturic acid (TBA) method. Briefly, 50 μl of 35% perchloric acid was added to the incubated mixture, which was then centrifuged at 2,000 rpm, at 4° C., for 10 minutes. The resulting supernatant was transferred into a different 96-well plate in an amount of 200 μl/well. 100 μl/well of TBA (5 mg/ml TBA in 50% acetic acid) was added thereto, and reacted at 80° C. for 1 hour. Then, the reaction mixture was cooled to room temperature, and its absorbance at 532 nm was measured.
On the other hand, a calibration curve was prepared using tetraethoxypropane which is a […] for TBA. In the same manner, the peroxylipid concentration in a sample that had been incubated for 30 minutes in the absence of the test compound, and also the peroxylipid concentration in a sample to which had been added 35% perchloric acid prior to the incubation (in the absence of the test compound) were also obtained. The inhibition percentage was calculating according to the following equation. The 50% inhibitory concentration (IC50) was obtained, using a log-probit method.
Inhibition Percentage (%)=[(C-A)/(C-B)]×100
A: Peroxylipid concentration in the sample to which was added the test compound;
B: Peroxylipid concentration in the sample to which was added 35% perchloric acid prior to the incubation;
C: Peroxylipid concentration in the sample to which was not added the test compound.

[1] = brain homogenate only, read-out: Peroxylipid Formation Inhibiting Effect (IC50) Brain Homogenate Only
[2] = glutamic acid 5.0 mM and succinic acid 2.5 mM added prior to incubation, read-out: Peroxylipid Formation Inhibiting Effect (IC50) Glutamic Acid and Succinic Acid Added

IC50 [1] [µM]	IC50 [2] [µM]	SMILES
1.1	0.17	COC1=C(OC)C(=O)C2=C(CC(CCCCCCCCO)C2)C1=O [Ex. 10, 2-(8-Hydroxyoctyl)-5,6-dimethoxyindan-4,7-dione]
2.3	0.94	CCOC(=O)CCCCCCCC1CC2=C(C1)C(=O)C(OC)=C(OC)C2=O [Ex. 9, Ethyl 8-(5,6-dimethoxy-4,7-dioxoindan-2-yl)octanoate]
